In patent US9296723B2, “NAMPT inhibitors” (AbbVie Inc., priority 2012, dated 2016) one finds IC50 data, which are given here for 26 compounds.

The target in experiment [1] is T1, NAMPT (Homo sapiens, UniProt P43490). The experiment in a line: Time-Resolved Fluorescence Resonance Energy Transfer (TR-FRET) Binding Assay of NAMPT. Particulars: 6.8 nM NAMPT, 200 nM probe, equilibrated 3 hours, no substrates. The method in brief: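 IC50s come from four-parameter logistic fits of control-normalized Em520/Em495 TR-FRET ratios (Ex 337 nm) against compound concentration. Before reading, enzyme, probe, antibody and compound equilibrated for 3 h at room temperature.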
T1 sequence (P43490 whole entry): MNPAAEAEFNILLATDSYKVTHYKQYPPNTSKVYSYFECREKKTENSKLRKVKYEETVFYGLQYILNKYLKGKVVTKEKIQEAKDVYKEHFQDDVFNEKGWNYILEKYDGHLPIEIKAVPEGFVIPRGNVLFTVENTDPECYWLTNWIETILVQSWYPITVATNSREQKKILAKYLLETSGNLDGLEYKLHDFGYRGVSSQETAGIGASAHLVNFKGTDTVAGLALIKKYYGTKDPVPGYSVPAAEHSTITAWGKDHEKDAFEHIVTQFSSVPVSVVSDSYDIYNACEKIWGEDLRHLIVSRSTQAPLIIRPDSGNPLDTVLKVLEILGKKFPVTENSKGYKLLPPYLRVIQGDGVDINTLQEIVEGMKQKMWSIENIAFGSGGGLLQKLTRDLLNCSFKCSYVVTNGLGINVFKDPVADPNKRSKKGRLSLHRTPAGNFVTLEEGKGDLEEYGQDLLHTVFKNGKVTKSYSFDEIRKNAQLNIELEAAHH

For a further experiment, the system named is PC3 cells. The experiment in a line: NAMPT Cell Proliferation Assay (Cell Titer Glo). It is filed as cell-based. Particulars: Homo sapiens, PC-3, 120 h, incubated 5 days, cell viability. The method in brief:
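Viability measured by Cell Titer Glo luminescence after 5-day exposure of attached PC3 cells to compound, dosed as 10-fold serial dilutions ([…]) in RPMI/10% FBS at 37 °C and 5% CO2. Percent inhibition fitted to sigmoidal dose-response curves for IC50.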

Experiment [2] deals with T1, NAMPT. The experiment in a line: TR-FRET Binding Assay of NAMPT with PRPP. Particulars: 2 nM NAMPT, 2 nM probe, 200 µM PRPP and 2.5 mM ATP, equilibrated 16 hours. Summed up: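 Substrates present: PRPP at 200 µM and ATP at 2.5 mM, final, alongside 2 nM enzyme, 2 nM tracer and 1 nM terbium anti-His donor in 2% DMSO. A 16-hour equilibration preceded the time-resolved FRET read, allowing compounds to be enzymatically modified.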

Regarding `CC(=O)C(=O)N1CCC(c2ccc(NC(=O)N3CC(c4cccnc4)C3)cc2)C1` (stereo not drawn) [Example 291, N-{4-[1-(2-oxopropanoyl)pyrrolidin-3-yl]phenyl}-3-(pyridin-3-yl)azetidine-1-carboxamide], the half-inhibitory concentration (IC50) is 0.0258 µM on NAMPT [1], 0.15 µM in the experiment with PC3 cells and 0.000207 µM on NAMPT [2].

In the case of `O=C(CC1CCCC1)N1CCC(c2ccc(NC(=O)N3CC(c4cccnc4)C3)cc2)C1` (stereo not drawn) [Example 261, N-{4-[1-(cyclopentylacetyl)pyrrolidin-3-yl]phenyl}-3-(pyridin-3-yl)azetidine-1-carboxamide], the results for the IC50 at NAMPT [1], in the experiment on PC3 cells and at NAMPT [2] were 0.0335 µM, 0.0713 µM and 0.000194 µM, respectively.

`CC(C)CCC(=O)N1CC(Oc2ccc(NC(=O)N3CC(c4cccnc4)C3)cc2)C1` [Example 124, N-(4-{[1-(4-methylpentanoyl)azetidin-3-yl]oxy}phenyl)-3-(pyridin-3-yl)azetidine-1-carboxamide]: the IC50 was 0.0149 µM at NAMPT [1], 0.00775 µM in the experiment with PC3 cells and 0.000375 µM on NAMPT [2].

In the case of `Cc1ccc(C(=O)N2CCC(c3ccc(NC(=O)N4CC(c5cccnc5)C4)cc3)CC2)s1` [Example 189, N-(4-{1-[(5-methylthiophen-2-yl)carbonyl]piperidin-4-yl}phenyl)-3-(pyridin-3-yl)azetidine-1-carboxamide], the IC50 on NAMPT [1] turned out to be 0.0226 µM; with PC3 cells, 0.0217 µM; on NAMPT [2], 0.00021 µM.

In the case of `Cn1cccc1C(=O)N1CC[C@@H](Oc2ccc(NC(=O)N3CC(c4cccnc4)C3)cc2)C1` [Example 325, N-[4-({(3R)-1-[(1-methyl-1H-pyrrol-2-yl)carbonyl]pyrrolidin-3-yl}oxy)phenyl]-3-(pyridin-3-yl)azetidine-1-carboxamide], the half-inhibitory concentration (IC50) at NAMPT [1] stood at 0.0188 µM; in the experiment on PC3 cells, 0.0113 µM; at NAMPT [2] it was 0.000362 µM.

Regarding `Cc1ccc(C(=O)N2CCC(c3ccc(NC(=O)N4CC(c5cccnc5)C4)cc3)C2)s1` (stereo not drawn) [Example 283, N-(4-{1-[(5-methylthiophen-2-yl)carbonyl]pyrrolidin-3-yl}phenyl)-3-(pyridin-3-yl)azetidine-1-carboxamide], the results for the IC50 on NAMPT [1], in the experiment with PC3 cells and on NAMPT [2] were 0.0337 µM, 0.0617 µM and 0.000266 µM, respectively.

With `O=C(CC1CC1)N1CC=C(c2ccc(NC(=O)N3CC(c4cccnc4)C3)cc2)CC1` [Example 26, N-{4-[1-(cyclopropylacetyl)-1,2,3,6-tetrahydropyridin-4-yl]phenyl}-3-(pyridin-3-yl)azetidine-1-carboxamide], the concentration for half-maximal inhibition (IC50) on NAMPT [1] is 0.0736 µM; with PC3 cells, 0.172 µM; on NAMPT [2], 0.000724 µM.

As for `CCC(C)CC(=O)N1CCC(c2ccc(NC(=O)N3CC(c4cccnc4)C3)cc2)C1` (stereo not drawn) [Example 259, N-{4-[1-(3-methylpentanoyl)pyrrolidin-3-yl]phenyl}-3-(pyridin-3-yl)azetidine-1-carboxamide], the values for the IC50 on NAMPT [1], in the experiment on PC3 cells and on NAMPT [2] were 0.0545 µM, 0.0647 µM and 0.000452 µM, respectively.

As for `O=C(Nc1ccc(C2CN(CC3CC3)C2)cc1)N1CC(c2cccnc2)C1` [Example 248, N-{4-[1-(cyclopropylmethyl)azetidin-3-yl]phenyl}-3-(pyridin-3-yl)azetidine-1-carboxamide], the IC50 stood at 0.99 µM at NAMPT [1], 1.38 µM in the experiment on PC3 cells and 0.000228 µM on NAMPT [2].

With `CCC(CC)CN1CC(c2ccc(NC(=O)N3CC(c4cccnc4)C3)cc2)C1` [Example 253, N-{4-[1-(2-ethylbutyl)azetidin-3-yl]phenyl}-3-(pyridin-3-yl)azetidine-1-carboxamide], the figures for the IC50 on NAMPT [1], in the experiment with PC3 cells and on NAMPT [2] were 0.538 µM, 0.622 µM and 0.000207 µM, respectively.

Take `CCCC(=O)N1CC[C@H](Oc2ccc(NC(=O)N3CC(c4cccnc4)C3)cc2)C1` [Example 99, N-(4-{[(3S)-1-butanoylpyrrolidin-3-yl]oxy}phenyl)-3-(pyridin-3-yl)azetidine-1-carboxamide]: the IC50 at NAMPT [1] worked out at 0.223 µM; in the experiment on PC3 cells it was 0.0493 µM; at NAMPT [2], 0.000414 µM.

With `CCCC(=O)N1CC(c2ccc(NC(=O)N3CC(c4cccnc4)C3)cc2)C1` [Example 111, N-[4-(1-butanoylazetidin-3-yl)phenyl]-3-(pyridin-3-yl)azetidine-1-carboxamide], the IC50 stood at 0.0539 µM at NAMPT [1], 0.0292 µM in the experiment with PC3 cells and 0.000292 µM on NAMPT [2].

With `COCC(=O)N1CCC(c2ccc(NC(=O)N3CC(c4cccnc4)C3)cc2)C1` (stereo not drawn) [Example 292, N-{4-[1-(methoxyacetyl)pyrrolidin-3-yl]phenyl}-3-(pyridin-3-yl)azetidine-1-carboxamide], the IC50 on NAMPT [1] amounted to 0.268 µM; in the experiment on PC3 cells it was 0.0878 µM; on NAMPT [2] it was 0.000259 µM.

With `Cc1ccsc1C(=O)N1CCC(c2ccc(NC(=O)N3CC(c4cccnc4)C3)cc2)CC1` [Example 186, N-(4-{1-[(3-methylthiophen-2-yl)carbonyl]piperidin-4-yl}phenyl)-3-(pyridin-3-yl)azetidine-1-carboxamide], the IC50 at NAMPT [1] came to 0.00293 µM; in the experiment with PC3 cells, 0.00345 µM; at NAMPT [2], 0.000345 µM.

For the compound `CCCCC(=O)N1CCC(c2ccc(NC(=O)N3CC(c4cccnc4)C3)cc2)C1` (stereo not drawn) [Example 258, N-[4-(1-pentanoylpyrrolidin-3-yl)phenyl]-3-(pyridin-3-yl)azetidine-1-carboxamide], the IC50 at NAMPT [1] was 0.0524 µM; with PC3 cells, 0.0683 µM; at NAMPT [2], 0.000359 µM.

For `O=C(Nc1ccc(C2CCN(C(=O)c3cccs3)CC2)cc1)N1CC(c2cccnc2)C1` [Example 188, 3-(pyridin-3-yl)-N-{4-[1-(thiophen-2-ylcarbonyl)piperidin-4-yl]phenyl}azetidine-1-carboxamide], the IC50 at NAMPT [1] came to 0.0021 µM; in the experiment with PC3 cells, 0.00225 µM; at NAMPT [2] it was 0.000188 µM.

In the case of `CCC(C)CN1CCC(c2ccc(NC(=O)N3CC(c4cccnc4)C3)cc2)CC1` (stereo not drawn) [Example 239, N-{4-[1-(2-methylbutyl)piperidin-4-yl]phenyl}-3-(pyridin-3-yl)azetidine-1-carboxamide], the IC50 on NAMPT [1] was determined as 1.68 µM; in the experiment on PC3 cells it was 1.51 µM; at NAMPT [2], 0.0002 µM.

`CC(C)(C)CC(=O)N1CCC(Oc2ccc(NC(=O)N3CC(c4cccnc4)C3)cc2)CC1` [Example 45, N-(4-{[1-(3,3-dimethylbutanoyl)piperidin-4-yl]oxy}phenyl)-3-(pyridin-3-yl)azetidine-1-carboxamide]: the IC50 stood at 0.0343 µM on NAMPT [1], 0.0634 µM with PC3 cells and 0.000223 µM at NAMPT [2].

Turning to `O=C(CC1CCCC1)N1CC[C@@H](Oc2ccc(NC(=O)N3CC(c4cccnc4)C3)cc2)C1` [Example 300, N-(4-{[(3R)-1-(cyclopentylacetyl)pyrrolidin-3-yl]oxy}phenyl)-3-(pyridin-3-yl)azetidine-1-carboxamide], the IC50 at NAMPT [1] was determined as 0.0526 µM; in the experiment on PC3 cells it was 0.0171 µM; on NAMPT [2], 0.000341 µM.

As for `CC(C)(C)OC(=O)N1CC(Oc2ccc(NC(=O)N3CC(c4cccnc4)C3)cc2)C1` [Example 63, tert-butyl 3-[4-({[3-(pyridin-3-yl)azetidin-1-yl]carbonyl}amino)phenoxy]azetidine-1-carboxylate], the IC50 on NAMPT [1] was found to be 0.0446 µM; with PC3 cells, 0.012 µM; at NAMPT [2], 0.00039 µM.

For the compound `CC(C)(C)C(=O)N1CCC(c2ccc(NC(=O)N3CC(c4cccnc4)C3)cc2)CC1` [Example 171, N-{4-[1-(2,2-dimethylpropanoyl)piperidin-4-yl]phenyl}-3-(pyridin-3-yl)azetidine-1-carboxamide], the IC50 was 0.00874 µM at NAMPT [1], 0.022 µM in the experiment with PC3 cells and 0.000231 µM at NAMPT [2].

On to `O=C(Nc1ccc(OC2CN(C(=O)[C@@H]3CCCO3)C2)cc1)N1CC(c2cccnc2)C1` [Example 29, 3-(pyridin-3-yl)-N-[4-({1-[(2S)-tetrahydrofuran-2-ylcarbonyl]azetidin-3-yl}oxy)phenyl]azetidine-1-carboxamide], for which the figures for the IC50 on NAMPT [1], in the experiment with PC3 cells and at NAMPT [2] were 0.0534 µM, 0.0661 µM and 0.000243 µM, respectively.

In the case of `CC(C)(C)C(=O)N1CCC(Oc2ccc(NC(=O)N3CC(c4cccnc4)C3)cc2)CC1` [Example 44, N-(4-{[1-(2,2-dimethylpropanoyl)piperidin-4-yl]oxy}phenyl)-3-(pyridin-3-yl)azetidine-1-carboxamide], the IC50 was 0.0446 µM on NAMPT [1], 0.0385 µM in the experiment on PC3 cells and 0.000315 µM at NAMPT [2].

As to `O=C(Nc1ccc(C2CCN(C(=O)c3ccoc3)CC2)cc1)N1CC(c2cccnc2)C1` [Example 182, N-{4-[1-(furan-3-ylcarbonyl)piperidin-4-yl]phenyl}-3-(pyridin-3-yl)azetidine-1-carboxamide], the IC50 came out at 0.00368 µM on NAMPT [1], 0.00695 µM in the experiment with PC3 cells and 0.000219 µM at NAMPT [2].

Consider `CCOCCC(=O)N1CC[C@@H](Oc2ccc(NC(=O)N3CC(c4cccnc4)C3)cc2)C1` [Example 314, N-(4-{[(3R)-1-(3-ethoxypropanoyl)pyrrolidin-3-yl]oxy}phenyl)-3-(pyridin-3-yl)azetidine-1-carboxamide], for which the results for the IC50 at NAMPT [1], in the experiment with PC3 cells and on NAMPT [2] were 0.11 µM, 0.0839 µM and 0.000178 µM, respectively.

Regarding `O=C(Nc1ccc(C2CCN(C(=O)c3nccs3)CC2)cc1)N1CC(c2cccnc2)C1` [Example 195, 3-(pyridin-3-yl)-N-{4-[1-(1,3-thiazol-2-ylcarbonyl)piperidin-4-yl]phenyl}azetidine-1-carboxamide], the IC50 on NAMPT [1] was 0.00419 µM; in the experiment on PC3 cells, 0.00866 µM; on NAMPT [2], 0.000281 µM.
